In the NIST ThermoML archive (doi:10.1021/acs.jced.9b00187):

Assays:
[1] = xn = mol fraction of the nth substance listed; conditions: Liquid, Moving piston method
[2] = Liquid; for viscosity: Moving piston method; for vapor or sublimation pressure: Closed cell (Static) method

CCCCCCCCCCCC [dodecane] + O=C=O
[1]
Conditions	viscosity [mPa·s]
283.7 K, 4630 kPa, x2 = 0.8	0.353
283.97 K, 4610 kPa, x2 = 0.8	0.362
284.33 K, 3710 kPa, x2 = 0.5999	0.578
284.41 K, 2630 kPa, x2 = 0.401	0.96
284.44 K, 2530 kPa, x2 = 0.401	0.972
284.6 K, 1460 kPa, x2 = 0.2009	1.227
305.43 K, 5410 kPa, x2 = 0.5999	0.487
305.44 K, 5360 kPa, x2 = 0.5999	0.498
305.64 K, 1770 kPa, x2 = 0.2009	0.865
305.65 K, 3610 kPa, x2 = 0.401	0.667
305.69 K, 1730 kPa, x2 = 0.2009	0.86
305.82 K, 6880 kPa, x2 = 0.8	0.272
328.83 K, 10780 kPa, x2 = 0.8	0.236
328.86 K, 7350 kPa, x2 = 0.5999	0.373
328.99 K, 4470 kPa, x2 = 0.401	0.493
329.3 K, 2050 kPa, x2 = 0.2009	0.585
350.19 K, 5510 kPa, x2 = 0.401	0.397
350.49 K, 14270 kPa, x2 = 0.8	0.208
350.95 K, 9320 kPa, x2 = 0.5999	0.305
351.33 K, 2490 kPa, x2 = 0.2009	0.437

CCCCCCCCCCCC [dodecane]
[2]
Conditions	viscosity [mPa·s]
284.6 K, 670 kPa	1.75
284.6 K, 2190 kPa	1.78
284.7 K, 2710 kPa	1.79
284.7 K, 4240 kPa	1.82
294 K, 8310 kPa	1.63
322.3 K, 4240 kPa	0.98
350.5 K, 690 kPa	0.66
350.5 K, 4250 kPa	0.68
350.5 K, 8310 kPa	0.72
353.1 K, 8320 kPa	0.69

O=C=O [carbon dioxide]
[2]
Conditions	vapor or sublimation pressure [kPa]
282.15 K	4392
287.11 K	4961
291.84 K	5555
296.64 K	6214
301.38 K	6928
